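Cultured in 96-well plates, cells were exposed to test compound for 48 hours across five concentrations. Abbreviation: GI50, concentration required for 50% inhibition of growth. At the TGI there is no net growth.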
Experiments:
Assay in all cases: NCI tumour cell line growth inhibition, 48 h
[1] = tested on: 786-0 renal
[2] = tested on: A498 renal
[3] = tested on: A549 NSCLC
[4] = tested on: ACHN renal
[5] = tested on: BT-549 breast
[6] = tested on: CAKI-1 renal
[7] = tested on: CCRF-CEM leukemia
[8] = tested on: COLO 205 colon
[9] = tested on: DU-145 prostate
[10] = tested on: EKVX NSCLC
[11] = tested on: HCC-2998 colon
[12] = tested on: HCT-116 colon
[13] = tested on: HCT-15 colon
[14] = tested on: HL-60(TB) leukemia
[15] = tested on: HOP-62 NSCLC
[16] = tested on: HOP-92 NSCLC
[17] = tested on: HS 578T breast
[18] = tested on: HT29 colon
[19] = tested on: IGROV1 ovarian
[20] = tested on: K-562 leukemia
[21] = tested on: KM12 colon
[22] = tested on: LOX IMVI melanoma
[23] = tested on: M14 melanoma
[24] = tested on: MALME-3M melanoma
[25] = tested on: MCF7 breast
[26] = tested on: MDA-MB-231 breast
[27] = tested on: MDA-MB-435
[28] = tested on: MOLT-4 leukemia
[29] = tested on: NCI-H226 lung
[30] = tested on: NCI-H23 lung
[31] = tested on: NCI-H460 lung
[32] = tested on: NCI-H522 lung
[33] = tested on: NCI/ADR-RES ovarian
[34] = tested on: OVCAR-3 ovarian
[35] = tested on: OVCAR-4 ovarian
[36] = tested on: OVCAR-5 ovarian
[37] = tested on: OVCAR-8 ovarian
[38] = tested on: PC-3 prostate
[39] = tested on: RPMI-8226 leukemia
[40] = tested on: RXF 393 renal
[41] = tested on: SF-268 CNS
[42] = tested on: SF-295 CNS
[43] = tested on: SK-MEL-2 melanoma
[44] = tested on: SK-MEL-28 melanoma
[45] = tested on: SK-MEL-5 melanoma
[46] = tested on: SK-OV-3 ovarian
[47] = tested on: SN12C renal
[48] = tested on: SNB-19 CNS
[49] = tested on: SNB-75 CNS
[50] = tested on: SR leukemia
[51] = tested on: SW-620 colon
[52] = tested on: T-47D breast
[53] = tested on: TK-10 renal
[54] = tested on: U251 CNS
[55] = tested on: UACC-257 melanoma
[56] = tested on: UACC-62 melanoma
[57] = tested on: UO-31 renal

Cc1ccc(/C=C2\COc3ccc(O)c(O)c3C2=O)cc1
GI50 [1]: 555 nM
TGI [1]: 2490 nM
GI50 [2]: 249 nM
TGI [2]: 1950 nM
GI50 [3]: 2330 nM
TGI [3]: 11500 nM
GI50 [4]: 639 nM
TGI [4]: 2000 nM
GI50 [5]: 585 nM
TGI [5]: 2640 nM
GI50 [6]: 765 nM
TGI [6]: 2200 nM
GI50 [7]: 265 nM
TGI [7]: 1480 nM
GI50 [8]: 2000 nM
TGI [8]: 3950 nM
GI50 [9]: 394 nM
TGI [9]: 1710 nM
GI50 [10]: 1280 nM
TGI [10]: 4140 nM
GI50 [11]: 1690 nM
TGI [11]: 3280 nM
GI50 [12]: 1280 nM
TGI [12]: 2930 nM
GI50 [13]: 352 nM
TGI [13]: 6410 nM
GI50 [14]: 421 nM
TGI [14]: 2140 nM
GI50 [15]: 1440 nM
TGI [15]: 6640 nM
GI50 [16]: 887 nM
TGI [16]: 5770 nM
GI50 [17]: 362 nM
TGI [17]: > 26400 nM
GI50 [18]: 2780 nM
TGI [18]: 9050 nM
GI50 [19]: 559 nM
TGI [19]: 2620 nM
GI50 [20]: 329 nM
TGI [20]: > 100000 nM
GI50 [21]: 838 nM
TGI [21]: 3000 nM
GI50 [22]: 329 nM
TGI [22]: 1340 nM
GI50 [23]: 292 nM
TGI [23]: 1060 nM
GI50 [24]: 909 nM
TGI [24]: 3150 nM
GI50 [25]: 375 nM
TGI [25]: 9760 nM
GI50 [26]: 340 nM
TGI [26]: 3780 nM
GI50 [27]: 233 nM
TGI [27]: 764 nM
GI50 [28]: 403 nM
TGI [28]: > 29600 nM
GI50 [29]: 2130 nM
TGI [29]: 6240 nM
GI50 [30]: 1450 nM
TGI [30]: 3800 nM
GI50 [31]: 1840 nM
TGI [31]: 5000 nM
GI50 [32]: 185 nM
TGI [32]: 461 nM
GI50 [33]: 343 nM
TGI [33]: > 100000 nM
GI50 [34]: 386 nM
TGI [34]: 1400 nM
GI50 [35]: 1470 nM
TGI [35]: 4960 nM
GI50 [36]: 1750 nM
TGI [36]: 3980 nM
GI50 [37]: 404 nM
TGI [37]: > 100000 nM
GI50 [38]: 505 nM
TGI [38]: 3740 nM
GI50 [39]: 252 nM
TGI [39]: 818 nM
GI50 [40]: 372 nM
TGI [40]: 1160 nM
GI50 [41]: 1120 nM
TGI [41]: 3350 nM
GI50 [42]: 2040 nM
TGI [42]: 9640 nM
GI50 [43]: 555 nM
TGI [43]: 3650 nM
GI50 [44]: 933 nM
TGI [44]: 2830 nM
GI50 [45]: 320 nM
TGI [45]: 1260 nM
GI50 [46]: 395 nM
TGI [46]: 35100 nM
GI50 [47]: 370 nM
TGI [47]: 2330 nM
GI50 [48]: 1320 nM
TGI [48]: 3270 nM
GI50 [49]: 322 nM
TGI [49]: 3480 nM
GI50 [50]: 358 nM
TGI [50]: > 100000 nM
GI50 [51]: 854 nM
TGI [51]: 3110 nM
GI50 [52]: 951 nM
TGI [52]: 6940 nM
GI50 [53]: 1470 nM
TGI [53]: 3440 nM
GI50 [54]: 922 nM
TGI [54]: 2290 nM
GI50 [55]: 1550 nM
TGI [55]: 5380 nM
GI50 [56]: 407 nM
TGI [56]: 1650 nM
GI50 [57]: 465 nM
TGI [57]: 1800 nM

Source: PubChem BioAssay (NCI)
